Test results from patent publication US12252524B2, “GIP/GLP1 co-agonist compounds” (Eli Lilly and Company, priority 2018, dated 2025).
Numbered stars: 1 amine (or outer) side, 2 acyl side, 3 side chain; on linkers, the order of the positions; unused ones are H or OH. Square brackets hold non-standard residues; d marks the D form. Side chains are listed from the residue outwards. Peptide text beside a SMILES is read from it. * marks the point of attachment. C20 diacid = O=C(O)CCCCCCCCCCCCCCCCCCC(=O)*; γGlu = O=C(O)[C@H](CCC(=O)[*:2])N[*:1]; αMeL = CC(C)C[C@](C)(N)C(=O)O; AEEA = NCCOCCOCC(=O)O; Aib = CC(C)(N)C(=O)O

Assays:
human GLP-1R = human GLP-1R (Homo sapiens, UniProt P43220); experiment: [125I]-GLP-1 binding (SPA), human GLP-1 receptor; set-up: expressed in transfected cells; crude membranes; conditions: read-out: hGLP1R Ki, (nM) (SEM, n)
Outline: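 Assay buffer: HEPES 25 mM, pH 7.4, CaCl2 2.5 mM, MgCl2 1 mM, with EDTA-free protease inhibitors. Receptor came from crude cell membranes prepared by homogenization and centrifugation at 4° C. IC50s came from four-parameter fits (maximum, minimum, IC50, Hill slope) and were expressed as Ki geometric means with SEM.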

human GIP receptor = target: T1, human GIP receptor (Homo sapiens, UniProt P48546); experiment: [125I]-GIP binding (SPA), human GIP receptor; conditions: read-out: hGIPR Ki, nM (SEM, n)
T1 construct: expressed in transfected cells; crude membranes
T1 sequence (P48546 22-466): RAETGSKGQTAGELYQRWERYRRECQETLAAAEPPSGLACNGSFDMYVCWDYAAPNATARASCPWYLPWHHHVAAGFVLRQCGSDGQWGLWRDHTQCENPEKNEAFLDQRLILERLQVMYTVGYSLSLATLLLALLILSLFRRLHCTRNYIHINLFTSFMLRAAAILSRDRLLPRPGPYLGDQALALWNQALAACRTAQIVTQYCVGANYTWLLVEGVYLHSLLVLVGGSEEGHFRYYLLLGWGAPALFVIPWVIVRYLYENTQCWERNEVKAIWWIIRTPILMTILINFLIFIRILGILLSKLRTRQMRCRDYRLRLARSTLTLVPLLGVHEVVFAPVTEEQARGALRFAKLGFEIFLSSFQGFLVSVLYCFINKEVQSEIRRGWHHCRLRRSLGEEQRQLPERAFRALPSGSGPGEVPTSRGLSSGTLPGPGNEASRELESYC

[1] = target: T2, gastric inhibitory peptide receptor (GIPR) (Homo sapiens, UniProt P48546); experiment: cAMP pharmacological functional assay in presence of casein, hGIPR; format: cell-based; conditions: HEK293 cells expressing hGIPR, 0.1% Casein, geometric mean; read-out: hGIPR cAMP Rel EC50 nM (SEM, n)
T2 sequence (P48546 22-466): T1 sequence (P48546 22-466)

human Gcg receptor = target: T3, human Gcg receptor (Homo sapiens, UniProt P47871); experiment: [125I]-Glucagon binding (SPA), human Gcg receptor; conditions: read-out: hGLcgR Ki, nM (SEM, n)
T3 construct: expressed in transfected cells; crude membranes
Outline: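 Cell pellets were lysed in hypotonic Tris buffer, pH 7.5, homogenized, and spun at low then high speed to give crude membranes. Ki was derived from the fitted IC50.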

[2] = target: human GLP-1 receptor (GLP-1R) (Homo sapiens, UniProt P43220); experiment: cAMP pharmacological functional assay in presence of casein, hGLP-1R; format: cell-based; conditions: HEK293 cells expressing hGLP-1R, 0.1% Casein, geometric mean; read-out: hGLP1R cAMP Rel EC50 nM (SEM, n)
human GLP-1 receptor (GLP-1R), sequence (P43220 24-463): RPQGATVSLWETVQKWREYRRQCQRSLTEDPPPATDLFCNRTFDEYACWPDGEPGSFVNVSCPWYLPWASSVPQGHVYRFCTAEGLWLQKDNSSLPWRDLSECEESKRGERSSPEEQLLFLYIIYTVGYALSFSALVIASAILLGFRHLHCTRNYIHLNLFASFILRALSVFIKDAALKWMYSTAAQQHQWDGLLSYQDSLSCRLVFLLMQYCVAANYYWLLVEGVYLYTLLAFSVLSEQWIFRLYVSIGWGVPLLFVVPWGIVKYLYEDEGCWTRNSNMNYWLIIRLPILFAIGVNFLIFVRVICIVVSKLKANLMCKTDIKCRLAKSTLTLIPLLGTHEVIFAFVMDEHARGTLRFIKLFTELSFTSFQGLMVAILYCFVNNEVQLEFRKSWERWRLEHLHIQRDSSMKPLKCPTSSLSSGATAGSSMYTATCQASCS

human GLP-1R, sequence (P43220 24-463): as above
T3 sequence (P47871 26-477): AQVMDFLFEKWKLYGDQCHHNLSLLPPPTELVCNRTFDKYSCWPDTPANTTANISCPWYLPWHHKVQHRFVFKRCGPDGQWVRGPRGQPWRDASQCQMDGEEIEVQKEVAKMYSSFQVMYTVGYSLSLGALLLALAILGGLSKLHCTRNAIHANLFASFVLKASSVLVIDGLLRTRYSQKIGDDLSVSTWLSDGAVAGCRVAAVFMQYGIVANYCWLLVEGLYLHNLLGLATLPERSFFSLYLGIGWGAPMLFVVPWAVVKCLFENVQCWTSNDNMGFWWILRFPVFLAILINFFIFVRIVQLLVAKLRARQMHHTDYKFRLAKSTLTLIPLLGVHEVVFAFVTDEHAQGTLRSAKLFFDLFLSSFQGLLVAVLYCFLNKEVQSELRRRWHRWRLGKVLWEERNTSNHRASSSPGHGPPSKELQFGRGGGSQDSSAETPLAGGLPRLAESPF

Row | Compound | Ki (human GLP-1R) | Ki (human GIP receptor) | EC50 [1] | Ki (human Gcg receptor) | EC50 [2]
1 | CC[C@H](C)[C@H](NC(=O)[C@H](CC(C)C)NC(=O)[C@H](Cc1ccc(O)cc1)NC(=O)[C@H](CCC(=O)O)NC(=O)[C@@H](NC(=O)[C@H](Cc1ccccc1)NC(=O)[C@H](C)NC(=O)C(C)(C)NC(=O)[C@H](CCC(N)=O)NC(=O)[C@H](C)NC(=O)[C@H](CCCCNC(=O)COCCOCCNC(=O)COCCOCCNC(=O)CC[C@H](NC(=O)CCCCCCCCCCCCCCCCCCC(=O)O)C(=O)O)NC(=O)[C@H](CCCCN)NC(=O)[C@H](CC(=O)O)NC(=O)[C@H](CC(C)C)NC(=O)[C@H](CC(C)C)NC(=O)[C@H](CO)NC(=O)[C@H](CO)NC(=O)[C@H](Cc1ccc(O)cc1)NC(=O)[C@H](CC(=O)O)NC(=O)[C@H](CO)NC(=O)[C@@H](NC(=O)[C@H](Cc1ccccc1)NC(=O)[C@@H](NC(=O)CNC(=O)[C@H](CCC(=O)O)NC(=O)C(C)(C)NC(=O)[C@@H](N)Cc1ccc(O)cc1)[C@@H](C)O)[C@@H](C)O)[C@@H](C)CC)C(=O)N[C@@H](CCC(=O)O)C(=O)NCC(=O)NCC(=O)N1CCC[C@H]1C(=O)N[C@@H](CO)C(=O)N[C@@H](CO)C(=O)NCC(=O)N[C@@H](C)C(=O)N1CCC[C@H]1C(=O)N1CCC[C@H]1C(=O)N1CCC[C@H]1C(=O)N[C@@H](CO)C(N)=O [Example 58] (H-Y[Aib]EGTFTSDYSSLLDKK([AEEA-AEEA-γGlu-C20 diacid])AQ[Aib]AFIEYLIEGGPSSGAPPPS-NH2; N-terminus assumed) | 2.77 nM | 0.105 nM | 0.266 nM | 339 nM | 0.18 nM
2 | CC[C@H](C)[C@H](NC(=O)[C@H](CC(C)C)NC(=O)[C@H](Cc1ccc(O)cc1)NC(=O)[C@H](CCC(=O)O)NC(=O)[C@@H](NC(=O)[C@H](Cc1ccccc1)NC(=O)[C@H](C)NC(=O)C(C)(C)NC(=O)[C@H](CCC(N)=O)NC(=O)[C@H](C)NC(=O)[C@H](CCCCNC(=O)COCCOCCNC(=O)COCCOCCNC(=O)CC[C@H](NC(=O)CCCCCCCCCCCCCCCCCCC(=O)O)C(=O)O)NC(=O)[C@H](CCC(=O)O)NC(=O)[C@H](CC(=O)O)NC(=O)[C@H](CC(C)C)NC(=O)[C@](C)(CC(C)C)NC(=O)[C@@H](NC(=O)[C@H](CO)NC(=O)[C@H](Cc1ccc(O)cc1)NC(=O)[C@H](CC(=O)O)NC(=O)[C@H](CO)NC(=O)[C@@H](NC(=O)[C@H](Cc1ccccc1)NC(=O)[C@@H](NC(=O)CNC(=O)[C@H](CCC(=O)O)NC(=O)C(C)(C)NC(=O)[C@@H](N)Cc1ccc(O)cc1)[C@@H](C)O)[C@@H](C)O)[C@@H](C)CC)[C@@H](C)CC)C(=O)N[C@@H](CCC(=O)O)C(=O)NCC(=O)NCC(=O)N1CCC[C@H]1C(=O)N[C@@H](CO)C(=O)N[C@@H](CO)C(=O)NCC(=O)N[C@@H](C)C(=O)N1CCC[C@H]1C(=O)N1CCC[C@H]1C(=O)N1CCC[C@H]1C(=O)N[C@@H](CO)C(N)=O [Example 59] (H-Y[Aib]EGTFTSDYSI[αMeL]LDEK([AEEA-AEEA-γGlu-C20 diacid])AQ[Aib]AFIEYLIEGGPSSGAPPPS-NH2) | 8.2 nM | 0.136 nM | 0.0922 nM | 292 nM | 0.084 nM
